target: T1, FXR ligand binding domain (GST-FXR LBD fusion protein, human FXR aa 193-473) (Homo sapiens, UniProt Q96RI1); assay: Radioligand binding assay (scintillation proximity, radioligand displacement); conditions: 40 nM GST-FXR LBD on SPA beads, test compound 6×10^−9 M to 2.5×10^−5 M, read-out: h-IC50 Binding
T1 construct: fused on or other part: Glutathione-S-transferase (GST) fused N-terminally to the FXR LBD, used to capture the protein on glutathione SPA beads
T1 sequence (Q96RI1 211-486 limits assumed): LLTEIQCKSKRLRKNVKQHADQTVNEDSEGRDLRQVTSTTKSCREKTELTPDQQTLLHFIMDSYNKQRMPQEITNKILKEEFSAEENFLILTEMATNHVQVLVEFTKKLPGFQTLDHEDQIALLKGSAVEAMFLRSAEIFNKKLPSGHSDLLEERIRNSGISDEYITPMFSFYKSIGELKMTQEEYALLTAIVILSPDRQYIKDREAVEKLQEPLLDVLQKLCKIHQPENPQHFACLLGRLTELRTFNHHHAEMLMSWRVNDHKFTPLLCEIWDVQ
How it was run: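 40 nM GST-FXR LBD, E. coli-expressed, bound to glutathione yttrium silicate SPA beads in 50 mM Hepes pH 7.4, 10 mM NaCl, 5 mM MgCl2, 0.01% CHAPS. Test compounds displace radioligand (e.g. 20 nM benzimidazolyl-acetamide ligand); bound ligand measured by scintillation proximity counting.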

Structure (SMILES) | IC50
COc1ccc(-c2nc3cc(F)c(F)cc3n2C(COc2ccc(C(=O)O)cc2F)C2CCCCC2)c(OC)n1 (centres unmarked) [Example 46, 4-{2-Cyclohexyl-2-[2-(2,6-dimethoxy-pyridin-3-yl)-5,6-difluoro-benzoimidazol-1-yl]-ethoxy}-3-fluoro-benzoic acid] | 100 nM
O=C(O)C1(Oc2ccc(OCC(C3CCCCC3)n3c(-c4ccc(Cl)cc4)nc4cc(F)c(F)cc43)nc2)CC1 (centres unmarked) [Example 50, 1-(6-{2-[2-(4-Chloro-phenyl)-5,6-difluoro-benzoimidazol-1-yl]-2-cyclohexyl-ethoxy}-pyridin-3-yloxy)-cyclopropanecarboxylic acid] | 100 nM
Cc1cc(C(=O)O)cc(C)c1OCC(C1CCCCC1)n1c(-c2ccc(Cl)cc2)nc2cc(F)c(F)cc21 (centres unmarked) [Example 53, 4-{2-[2-(4-Chloro-phenyl)-5,6-difluoro-benzoimidazol-1-yl]-2-cyclohexyl-ethoxy}-3,5-dimethyl-benzoic acid] | 30 nM
Fc1cc2nc(-c3ccc(Cl)cc3)n(C(COc3ccc(-c4nnn[nH]4)cn3)C3CCCCC3)c2cc1F (centres unmarked) [Example 56, 2-(4-Chloro-phenyl)-1-{1-cyclohexyl-2-[5-(1H-tetrazol-5-yl)-pyridin-2-yloxy]-ethyl}-5,6-difluoro-1H-benzoimidazole] | 50 nM
CC(C)(OCc1ccc(C(=O)O)cc1)C(C1CCCCC1)n1c(-c2ccc(Cl)cc2)nc2cc(F)c(F)cc21 (centres unmarked) [Example 57, 4-{2-[2-(4-Chloro-phenyl)-5,6-difluoro-benzoimidazol-1-yl]-2-cyclohexyl-1,1-dimethyl-ethoxymethyl}-benzoic acid] | 100 nM
O=C(O)c1ccc(COCC(C2CCCCC2)n2c(-c3ccc(Cl)cc3)nc3cc(F)c(F)cc32)cc1 (centres unmarked) [Example 58, 4-{2-[2-(4-Chloro-phenyl)-5,6-difluoro-benzoimidazol-1-yl]-2-cyclohexyl-ethoxymethyl}-benzoic acid] | 100 nM
O=C(O)c1ccc(COCC(C2CCCCC2)n2c(-c3ccc(Cl)cc3)nc3cc(F)c(F)cc32)c(F)c1 (centres unmarked) [Example 59, 4-{2-[2-(4-Chloro-phenyl)-5,6-difluoro-benzoimidazol-1-yl]-2-cyclohexyl-ethoxymethyl}-3-fluoro-benzoic] | 60 nM
COc1cc(C(=O)O)ccc1COCC(C1CCCCC1)n1c(-c2ccc(Cl)cc2)nc2cc(F)c(F)cc21 (centres unmarked) [Example 60, 4-{2-[2-(4-Chloro-phenyl)-5,6-difluoro-benzoimidazol-1-yl]-2-cyclohexyl-ethoxymethyl}-3-methoxy-benzoic acid] | 500 nM
Cc1cc(OCC(C2CCCCC2)n2c(-c3ccc(Cl)cc3)nc3cc(F)c(F)cc32)cc(C)c1C(=O)O (centres unmarked) [Example 61, 4-{2-[2-(4-Chloro-phenyl)-5,6-difluoro-benzoimidazol-1-yl]-2-cyclohexyl-ethoxy}-2,6-dimethyl-benzoic acid] | 1400 nM
Fc1cc2nc(-c3ccc(Cl)cc3)n(C(COc3ccc(-c4nnn[nH]4)cc3F)C3CCCCC3)c2cc1F (centres unmarked) [Example 66, 2-(4-Chloro-phenyl)-1-{1-cyclohexyl-2-[2-fluoro-4-(1H-tetrazol-5-yl)-phenoxy]-ethyl}-5,6-difluoro-1H-benzoimidazole] | 10 nM
O=C(O)c1ccc(COCC(C2CCCCC2)n2c(-c3ccc(Cl)cc3)nc3cc(F)c(F)cc32)nc1 (centres unmarked) [Example 67, 6-{2-[2-(4-Chloro-phenyl)-5,6-difluoro-benzoimidazol-1-yl]-2-cyclohexyl-ethoxymethyl}-nicotinic acid] | 2500 nM
Cc1cc(-c2nnn[nH]2)cc(C)c1OCC(C1CCCCC1)n1c(-c2ccc(Cl)cc2)nc2cc(F)c(F)cc21 (centres unmarked) [Example 70, 2-(4-Chloro-phenyl)-1-{1-cyclohexyl-2-[2,6-dimethyl-4-(1H-tetrazol-5-yl)-phenoxy]-ethyl}-5,6-difluoro-1H-benzoimidazole] | 10 nM
COc1ccc(-c2nc3cc(F)c(F)cc3n2C(COc2ccc(C(=O)O)cn2)C2CCCCC2)c(OC)n1 (centres unmarked) [Example 73, 6-{2-Cyclohexyl-2-[2-(2,6-dimethoxy-pyridin-3-yl)-5,6-difluoro-benzoimidazol-1-yl]-ethoxy}-nicotinic acid] | 100 nM
O=C(O)c1cc(F)c(OCC(C2CCCCC2)n2c(-c3ccc(Cl)cc3)nc3cc(F)c(F)cc32)c(Cl)c1 (centres unmarked) [Example 76, 3-Chloro-4-{2-[2-(4-chloro-phenyl)-5,6-difluoro-benzoimidazol-1-yl]-2-cyclohexyl-ethoxy}-5-fluoro-benzoic acid] | 4 nM
CC(OCC(C1CCCCC1)n1c(-c2ccc(Cl)cc2)nc2cc(F)c(F)cc21)c1ccc(C(=O)O)cc1 (centres unmarked) [Example 79, 4-(1-{2-[2-(4-Chloro-phenyl)-5,6-difluoro-benzoimidazol-1-yl]-2-cyclohexyl-ethoxy}-ethyl)-benzoic acid] | 600 nM
COc1ccc(-c2nc3cc(F)c(F)cc3n2C(COc2c(C)cc(C(=O)O)cc2C)C2CCCCC2)c(OC)n1 (centres unmarked) [Example 82, 4-{2-Cyclohexyl-2-[2-(2,6-dimethoxy-pyridin-3-yl)-5,6-difluoro-benzoimidazol-1-yl]-ethoxy}-3,5-dimethyl-benzoic acid] | 1 nM
O=C(O)c1cc(F)c(OCC(C2CCCCC2)n2c(-c3ccc(Cl)cc3)nc3cc(F)c(F)cc32)c(F)c1 (centres unmarked) [Example 85, 4-{2-[2-(4-Chloro-phenyl)-5,6-difluoro-benzoimidazol-1-yl]-2-cyclohexyl-ethoxy}-3,5-difluoro-benzoic acid] | 10 nM
CC(C)(Oc1ccc(OCC(C2CCCCC2)n2c(-c3ccc(Cl)cc3)nc3cc(F)c(F)cc32)cc1)C(=O)O (centres unmarked) [Example 90, 2-(4-{2-[2-(4-Chloro-phenyl)-5,6-difluoro-benzoimidazol-1-yl]-2-cyclohexyl-ethoxy}-phenoxy)-2-methyl-propionic acid] | 200 nM
Cc1cc(OCC(C2CCCCC2)n2c(-c3ccc(Cl)cc3)nc3cc(F)c(F)cc32)ccc1OCC(=O)O (centres unmarked) [Example 92, (4-{2-[2-(4-Chloro-phenyl)-5,6-difluoro-benzoimidazol-1-yl]-2-cyclohexyl-ethoxy}-2-methyl-phenoxy)-acetic acid] | 90 nM
Cc1c(OCC(C2CCCCC2)n2c(-c3ccc(Cl)cc3)nc3cc(F)c(F)cc32)ccc(OC(C)(C)C(=O)O)c1C (centres unmarked) [Example 93, 2-(4-{2-[2-(4-Chloro-phenyl)-5,6-difluoro-benzoimidazol-1-yl]-2-cyclohexyl-ethoxy}-2,3-dimethyl-phenoxy)-2-methyl-propionic acid] | 300 nM
CC(C)(Oc1ccc(OCC(C2CCCCC2)n2c(-c3ccc(Cl)cc3)nc3cc(F)c(F)cc32)c(F)c1)C(=O)O (centres unmarked) [Example 94, 2-(4-{2-[2-(4-Chloro-phenyl)-5,6-difluoro-benzoimidazol-1-yl]-2-cyclohexyl-ethoxy}-3-fluoro-phenoxy)-2-methyl-propionic acid] | 100 nM
CC(C)(Oc1cccc(OCC(C2CCCCC2)n2c(-c3ccc(Cl)cc3)nc3cc(F)c(F)cc32)c1)C(=O)O (centres unmarked) [Example 95, 2-(3-{2-[2-(4-Chloro-phenyl)-5,6-difluoro-benzoimidazol-1-yl]-2-cyclohexyl-ethoxy}-phenoxy)-2-methyl-propionic acid] | 600 nM
COc1ccc(-c2nc3cc(F)c(F)cc3n2C(COc2c(F)cc(C(=O)O)cc2F)C2CCCCC2)c(OC)n1 (centres unmarked) [Example 96, 4-{2-Cyclohexyl-2-[2-(2,6-dimethoxy-pyridin-3-yl)-56-difluoro-benzoimidazol-1-yl]-ethoxy}-3,5-difluoro-benzoic acid] | 2 nM
COc1ccc(-c2nc3cc(F)c(F)cc3n2C(COc2c(C)cc(-c3nnn[nH]3)cc2C)C2CCCCC2)c(OC)n1 (centres unmarked) [Example 99, 1-{1-cyclohexyl-2-[2,6-dimethyl-4-(1H-tetrazol-5-yl)-phenoxy]-ethyl}-2-(2,6-dimethoxy-pyridin-3-yl)-5,6-difluoro-1H-benzoimidazole] | 2 nM
O=C(O)c1cc(F)c(OCC(C2CCCCC2)n2c(-c3ccc(Cl)cc3)nc3ccccc32)c(F)c1 (centres unmarked) [Example 102, 4-{2-[2-(4-Chloro-phenyl)-benzoimidazol-1-yl]-2-cyclohexyl-ethoxy}-3,5-difluoro-benzoic acid] | 30 nM
Cc1cc(C(=O)O)cc(C)c1OCC(C1CCCCC1)n1c(-c2ccc(Cl)cc2)nc2ccccc21 (centres unmarked) [Example 105, 4-{2-[2-(4-Chloro-phenyl)-benzoimidazol-1-yl]-2-cyclohexyl-ethoxy}-3,5-dimethyl-benzoic acid] | 40 nM
O=C(O)c1cc(F)c(OCC(C2CCCCC2)n2c(-c3ccc(Cl)cc3)nc3ccccc32)c(Cl)c1 (centres unmarked) [Example 108, 3-Chloro-4-{2-[2-(4-chloro-phenyl)-benzoimidazol-1-yl]-2-cyclohexyl-ethoxy}-5-fluoro-benzoic acid] | 10 nM
Cc1cc(-c2nnn[nH]2)cc(C)c1OCC(C1CCCCC1)n1c(-c2ccc(Cl)cc2)nc2ccccc21 (centres unmarked) [Example 111, 2-(4-Chloro-phenyl)-1-{1-cyclohexyl-2-[2,6-dimethyl-4-(1H-tetrazol-5-yl)-phenoxy]-ethyl}-1H-benzoimidazole] | 20 nM

same assay, conditions: h-IC50 Binding, 40 nM GST-FXR LBD on SPA beads, test compound 6×10^−9 M to 2.5×10^−5 M

Structure (SMILES) | IC50
O=C(O)COc1ccc(OCC(C2CCCCC2)n2c(-c3ccc(Cl)cc3)nc3cc(F)c(F)cc32)cc1 (centres unmarked) [Example 91, (4-{2-[2-(4-Chloro-phenyl)-5,6-difluoro-benzoimidazol-1-yl]-2-cyclohexyl-ethoxy}-phenoxy)-acetic acid] | 60 nM

From patent US8088930B2, “Benzimidazole derivatives” (Hoffmann-La Roche Inc., priority 2008, dated 2012)
